According to article PMC12610573, “New Chlormequat-Based Ionic Liquids as Plant Resistance Inducers” (Molecules, 2025):

Tests used:
[1] = Solubility tests in representative solvents (Vogel protocol); conditions: 25 °C; for solubility: thermodynamic from solid
Method: The solubilities of the prepared ILs in ten representative solvents were determined according to the protocols from Vogel’s Textbook of Practical Organic Chemistry. The solvents chosen for the study were arranged in order of descending value of their Snyder polarity index: water—9.0, methanol—6.6, acetone—5.1, isopropanol—4.3, toluene—2.3, and hexane—0.0.

[2] = tested on: radish (Raphanus sativus) sprouts; test: Phytotoxicity test on radish sprouts; format: in vivo; conditions: for Reduction in Sprout Mass: compared with untreated control; for Mass of 25 Sprouts: radish, 5 days, UTC 3.09 g
Method: Twenty five seeds of radish (Raphanus sativus) were placed on a filter tissue in a Petri dish. […] Then, sprouts were weighted. All variants of treatment were tested together, with 3 replications (plates) in each of 2 cycles performed. Results were subjected to statistical analysis as described in Section 4.8.
(§1) Statistical significance of the effect of the treatments of plants with tested compounds on the phytotoxicity and SAR induction was assessed with the ANOVA test performed using the Statistica program StatSoft with software version 9.1 (StatSoft Sp. z o.o., Kraków, Poland). The statistical assumptions of normality and homogeneity of variances were verified prior to conducting the ANOVA tests. Differences between the means were estimated with Tukey’s HSD test at the significance level of p = 0.05.

[3] = tested on: Tobamovirus tabaci (tobacco mosaic virus, TMV) on Nicotiana tabacum cv. Xanthi; test: SAR induction assay: necrotic area after TMV inoculation of sprayed tobacco; format: in vivo; conditions: for SAR Induction (percentage of necrotic area on leaves): TMV inoculation after 7 days, read 7 days later, UTC 34.54; for Reduction in Necrotic Area: compared with untreated control plants; for Percentage of necrotic spot coverage (leaf shown in supplementary figure): single leaf image
Method: Plants of Nicotiana tabacum cv. Xanthi were grown under greenhouse conditions at 25 °C and 50% relative humidity, under natural daylight during the May–August growing season, with a natural photoperiod. The plants were sprayed with solutions containing the tested compounds.
In all experiments, the TMV SL-1 isolate Tobamovirus (TMV) was used. To obtain a viral inoculum, Nicotiana tabacum cv. Samsun plants were sap-inoculated with previously virus-infected plant material. After the appearance of disease symptoms on the infected plants (leaf mosaic), the virus was isolated by sucrose density gradient centrifugation with 0.01 M Tris-HCl, pH 7.0, to prepare the infectious inoculum. The concentration of virus in the obtained preparation was determined spectrophotometrically. The samples of TMV were stored at −20 °C until use.
The tested active substances at a given concentration were sprayed on tobacco plants with three fully developed leaves. The volume of working solution used was equal to 10 mL per plant. The compounds were dissolved in a water/propylene glycol solution (95/5, v/v). The plants of the untreated control variant were sprayed with a water/propylene glycol solution (95/5, v/v) that was used for the preparation of solutions of the tested compounds. After seven days, the plants were mechanically inoculated using purified viral preparations (0.01 ng/mL as described in [34]).
The plants were inoculated with the TMV inoculum at a concentration of 3.8 × 10^−4 ng per leaf. For each variant of treatment, 3 plants were sprayed, and 3 leaves of each plant were analyzed. The entire experiment was performed in 2 replicates. Necrotic areas on the leaves were determined using ImageJ software.
The surface of a leaf or an area with necrotic spots is represented by a set of pixels in the image, which are counted by the program. Reduction in necrotic area (ISAR) is expressed by the following formula:(1) ISAR=100−(At/Ac∗100) where At is the ratio of the area of necrotic spots caused by viral infection that appeared on the leaf treated with the test substance to the whole area of the leaf; Ac is the ratio of the area of the necrotic spots caused by viral infection that appeared on the leaf of the control plant to the whole area of the leaf.
as §1

[4] = Thermogravimetric analysis (TGA), thermal stability; conditions: TGA under nitrogen, 10 °C/min; for Thermal Stability T5%onset: 5% weight loss onset; for Thermal Stability Tonset: decomposition onset
Method: TGA was performed on a TGA Q50 (Texas Instruments, Dallas, TX, USA) under nitrogen. Samples (5–10 mg) were heated from 25 °C to 500 °C at 10 °C/min with an isothermal step at 85 °C for 10 min. T5%onset and Tonset values were recorded.

[5] = topical, read-out: Reduction in Necrotic Area

Compound | Solubility in Hexane ([1]; Snyder polarity index 0.0) | Solubility in Toluene ([1]; Snyder polarity index 2.3) | Solubility in Isopropanol ([1]; Snyder polarity index 4.3) | Solubility in Acetone ([1]; Snyder polarity index 5.1) | Solubility in Methanol ([1]; Snyder polarity index 6.6) | Solubility in Water ([1]; Snyder polarity index 9.0) | Reduction in Sprout Mass ([2]; 125 mg/L) [%] | Mass of 25 Sprouts ([2]; 125 mg/L) | Reduction in Sprout Mass ([2]; 250 mg/L) [%] | Mass of 25 Sprouts ([2]; 250 mg/L) | SAR Induction (percentage of necrotic area on leaves) ([3]; 125 mg/L spray) | Reduction in Necrotic Area ([3]; 125 mg/L) [%] | SAR Induction (percentage of necrotic area on leaves) ([3]; 250 mg/L spray) | Reduction in Necrotic Area ([3]; 250 mg/L) [%] | Thermal Stability T5%onset [4] [°C] | Thermal Stability Tonset [4] [°C] | further results
C[N+](C)(C)CCCl.O=C([O-])c1cc(Cl)nc(Cl)c1 [[CC][Ina]] | − (insoluble) | − (insoluble) | +/− (of limited solubility) | − (insoluble) | + (soluble) | + (soluble) | 15.05 | 2.63 fgh D | 28.21 | 2.22 gh C | 14.80 cd AB % | 57.2 | 12.52 ef A % | 63.8 | 177.2 |  | 
C[N+](C)(C)CCCl.O=C([O-])c1cc(Cl)cc(Cl)c1O [[CC][3,5-ClSal]] | − (insoluble) | − (insoluble) | +/− (of limited solubility) | − (insoluble) | + (soluble) | +/− (of limited solubility) | 27.51 | 2.24 cde C g | 37.38 | 1.94 ef B g | 7.79 ab A % | 77.4 | 4.93 abc A % | 85.7 | 208.3 |  | 
C[N+](C)(C)CCCl.O=C([O-])c1ccccc1O [[CC][Sal], chlormequat salicylate] |  |  |  |  |  |  | 8.79 | 2.82 hi C g | 26.91 | 2.26 hi B g | 19.99 de B % |  | 12.39 ef A % |  | 186.1 | 93.3 | solubility ([1]; organic solvent or mixture, Solubility in Acetone, Snyder polarity index 5.1): < 33.3 mg/mL; solubility ([1]; organic solvent or mixture, Solubility in Hexane, Snyder polarity index 0.0): < 33.3 mg/mL; solubility ([1]; organic solvent or mixture, Solubility in Isopropanol, Snyder polarity index 4.3): 33.3 to 100 mg/mL; solubility ([1]; organic solvent or mixture, Solubility in Methanol, Snyder polarity index 6.6): > 100 mg/mL; solubility ([1]; organic solvent or mixture, Solubility in Toluene, Snyder polarity index 2.3): < 33.3 mg/mL; solubility ([1]; water, Solubility (water)): > 100 mg/mL; solubility ([1]; water, Solubility in Water, Snyder polarity index 9.0): > 100 mg/mL; pest or weed control at 125 µg/mL [3, 5]: 42.1%; pest or weed control at 250 µg/mL [3, 5]: 64.1%
C[N+](C)(C)CCCl.O=C([O-])c1cc(Cl)ccc1O [[CC][5-ClSal]] | − (insoluble) | − (insoluble) | +/− (of limited solubility) | − (insoluble) | + (soluble) | +/− (of limited solubility) | 19.15 | 2.50 efg D | 30.15 | 2.16 fgh C | 3.15 a AB % | 90.9 | 1.58 a A % | 95.4 | 217.1 | 138.5 | Percentage of necrotic spot coverage (leaf shown in supplementary figure) ([3]; 125 mg/L): 2.28%; Percentage of necrotic spot coverage (leaf shown in supplementary figure) ([3]; 250 mg/L): 1.15%; Difference in percentage reduction in leaf necrotic area between 125 mg/L and 250 mg/L ([3]; in vivo): approximately 4.5 percentage points
